Literature values, collected in patent US20110070305A1, “SUSTAINED RELEASE PHARMACEUTICAL COMPOSITION CONTAINING MEBICAR” (ALPHARX INC., priority 2009, published 2011).

Experiments:
[1] = orally administered

SMILES: CN1C(=O)N(C)C2C1N(C)C(=O)N2C (stereo not drawn) [Mebicar]
- half-life [1]: approximately 3 hours
- solubility in alcohol and most polar organic solvents (alcohol and most polar organic solvents): soluble
- solubility in water (water, ambient temperature): about 50%
